# No end group written: not given here.
# Assays:
# P. aeruginosa 1409 [1] = test: Minimal inhibitory concentration (given as multiples of MIC); format: cell-based, Pseudomonas aeruginosa; conditions: MDR clinical isolate; MIC itself not given, only this multiple
# [2] = tested on: L929 (murine fibroblast cells); conditions: 400 mg/L; XTT, 24 h, serum-free DMEM
# Description: (§1) Cell viability was measured using cell proliferation kit II (XTT) (Roche). Cells, including A549 (adenocarcinomic human alveolar basal epithelial cells), 293FT (human embryonic kidney cells) and L929 (murine fibroblast cells), were cultured in Dulbecco's […] (DMEM) supplemented with 10% fetal bovine serum, 100 U penicillin/mL, and 100 μg streptomycin/mL in a humidified 5% CO2 atmosphere at 37°C. After digestion with trypsin, the cells were diluted in serum-free DMEM without phenol red to a final concentration of 2 × 10^5 cell/mL, seeded in 96 well plates (100 μl/well) and cultured overnight until adhesion. Cathelicidin-BF dissolved in serum-free DMEM without phenol red was added to wells, and the plates were incubated for 24 h as previously described. Subsequent procedures were performed according to the kit. Briefly, XTT labeling reagent (sodium 3′-[1-(phenylaminocarbonyl)-3,4-tetrazolium]-bis-4-methoxy-6-nitro) benzene sulfonic acid hydrate) in Roswell Park Memorial Institute (RPMI) 1640 medium without phenol red was mixed with electron-coupling reagent PMS (N-methyl dibenzopyrazine methyl sulfate) at a volume ratio of 50:1 to make the working solution. Fifty microliters of the XTT labeling mixture was added to each well and incubated at the same conditions for 6 h. Absorbance [A492 nm-A690 nm] stands for the quantification of viable cells.
# (§2) Figure 2 Cytotoxicity of cathelicidin-BF. Hemolysis and cell viability assays were conducted to test the cytotoxicity of cathelicidin-BF to mammalian cells.
# [3] = tested on: A549 (adenocarcinomic human alveolar basal epithelial cells); conditions: 400 mg/L; XTT, 24 h, serum-free DMEM
# Description: as §1, §2
# [4] = tested on: 293FT (human embryonic kidney cells); conditions: XTT, 24 h, serum-free DMEM
# Description: as §1, §2
# P. aeruginosa 1409 [5] = test: Membrane permeabilization assay (propidium iodide); format: cell-based, Pseudomonas aeruginosa; conditions: 1 h at 25°C in LB, then PI 10 μg/mL 30 min, fluorescence microscope
# Description: Then, PI was added to a final concentration of 10 μg/mL. After 30 min of incubation at 25°C, the cells were washed 3 times with PBS and immediately imaged with a fluorescence microscope (Olympus, Japan) (Yu et al., [2015]).
# Figure 3 Bacterial plasma membrane permeabilization assay of cathelicidin-BF. Cathelicidin-BF and levofloxacin were incubated with MDR P. aeruginosa in Luria-Bertani medium at final concentrations of 4 × MIC (minimal inhibitory concentration) or ¼ × MIC. After incubation at 25°C for 1 h, bacteria were collected by centrifugation at 3,000 × g for 5 min and resuspended with PBS. The DNA-binding fluorescent dye PI was added to a final concentration of 10 μg/mL. After 30 min incubation at 25°C, the cells were washed 3 times with PBS and immediately imaged using a fluorescence microscope.
sequence,measurement,setting,value
KFFRKLKKSVKKRAKEFFKKPRVIGVSIPF [cathelicidin-BF],4 × MIC,P. aeruginosa 1409 [1],32 µg/mL
same,effect on L929 cells,[2],intact
same,effect on A549 cells,[3],intact
same,concentrations at which proliferation of 293FT cells was inhibited,[4],> 50 mg/L
same,"integrity of bacterial membranes, PI staining at 4 × MIC","P. aeruginosa 1409 [5]; 4 × MIC (cathelicidin-BF 32 μg/mL, levofloxacin 64 μg/mL)",showed red fluorescence
same,"integrity of bacterial membranes, PI staining at ¼ × MIC","P. aeruginosa 1409 [5]; ¼ × MIC (cathelicidin-BF 2 μg/mL, levofloxacin 4 μg/mL)",no red dyes were detected

# From publication PMC5681922, “Systemic Responses of Multidrug-Resistant Pseudomonas aeruginosa and Acinetobacter baumannii Following Exposure to the Antimicrobial Peptide Cathelicidin-BF Imply Multiple Intracellular Targets” (Frontiers in Cellular and Infection Microbiology, 2017)
